Reference: patent publication US11484543B2, “Compositions and methods for diagnosing and treating diseases and disorders associated with mutant KCNJ5” (The Rockefeller University, priority 2017, dated 2022)
Where two headings read alike, the source gives them in different places.

Assays:
KCNJ3/KCNJ5^WT = molecular target: T1, KCNJ3/KCNJ5^WT (Homo sapiens, UniProt P48544); experiment: Perforated whole-cell patch clamp, KCNJ3/KCNJ5^WT heterotetramers in HEK293T cells; format: cell-based; details: 20 μM, 10 minutes after addition
T1 construct: GFP; expressed in transfected cells; host or cells: HEK293T (American Type Culture Collection), transient co-transfection
T1 sequence (P48544 1-419): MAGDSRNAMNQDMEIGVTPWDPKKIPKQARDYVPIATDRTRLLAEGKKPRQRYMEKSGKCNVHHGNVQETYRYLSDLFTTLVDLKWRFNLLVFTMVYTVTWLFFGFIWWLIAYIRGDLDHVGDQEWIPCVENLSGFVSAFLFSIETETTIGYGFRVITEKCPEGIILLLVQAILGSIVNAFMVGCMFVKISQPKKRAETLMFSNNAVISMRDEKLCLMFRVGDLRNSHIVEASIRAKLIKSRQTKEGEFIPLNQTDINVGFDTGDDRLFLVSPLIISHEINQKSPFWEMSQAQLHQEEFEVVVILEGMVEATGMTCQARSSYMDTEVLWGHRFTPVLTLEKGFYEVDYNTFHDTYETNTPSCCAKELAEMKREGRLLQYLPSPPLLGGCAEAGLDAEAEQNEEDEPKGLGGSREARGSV
T1 sequence (P48549 1-501 partner): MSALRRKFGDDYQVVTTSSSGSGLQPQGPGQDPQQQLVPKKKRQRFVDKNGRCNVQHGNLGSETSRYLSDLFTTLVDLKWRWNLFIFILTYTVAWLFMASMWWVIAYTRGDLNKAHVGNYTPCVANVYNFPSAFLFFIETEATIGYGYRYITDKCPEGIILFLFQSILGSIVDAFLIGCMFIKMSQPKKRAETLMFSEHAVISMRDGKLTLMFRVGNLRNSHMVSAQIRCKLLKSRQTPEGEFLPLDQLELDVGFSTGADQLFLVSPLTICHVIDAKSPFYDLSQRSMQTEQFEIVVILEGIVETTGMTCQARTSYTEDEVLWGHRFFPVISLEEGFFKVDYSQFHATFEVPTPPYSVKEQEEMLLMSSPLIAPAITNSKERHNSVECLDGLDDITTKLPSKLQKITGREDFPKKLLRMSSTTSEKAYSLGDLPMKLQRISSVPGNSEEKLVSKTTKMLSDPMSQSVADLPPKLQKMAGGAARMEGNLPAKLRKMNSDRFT
Procedure: HEK293T cells (American Type Culture Collection) were used for transient expression of GFP-tagged KCNJ5 or KCNJ3. The cells were grown in Dulbecco's modified Eagle medium (DMEM; Invitrogen) supplemented with 10% FBS (Invitrogen) in 5% CO2 and 95% air at 37° C. Cells were grown to 50-70% confluence for transfection, and the corresponding cDNAs (Choi et al., 2011, Science 331:768-772) were simultaneously applied to the cells using TurboFect transfection reagent according to the manufacturer's protocol (Fermentas). […]
Within 24 hr after transfection, the cells were treated with trypsin-containing medium (TrypLE Express) (Gibco) for 10 minutes to detach the cells. […] Fluorescence signal (an indication of positive transfection) was detected with an intensified video imaging system including a SIT 68 camera (Long Island Industries). […] After forming a high resistance seal (>2 GΩ), the membrane capacitance was monitored until the whole-cell patch configuration was formed. The cell membrane capacitance was measured and compensated. The K/cation currents were measured from −80 mV to 20 mV with 20 mV steps by an Axon 200A patch-clamp amplifier. The currents were low-pass filtered at 1 KHz and digitized by an Axon interface (Digidata 1200) and were analyzed using the pClamp software system 9 (Axon). […]

[1] = single dose of 300 mg, healthy adults, cited from earlier work

## CC[C@H]1OC(=O)[C@H](C)[C@@H](O[C@H]2C[C@@](C)(OC)[C@@H](O)[C@H](C)O2)[C@H](C)[C@@H](O[C@@H]2O[C@H](C)C[C@H](N(C)C)[C@H]2O)[C@](C)(O)C[C@@H](C)/C(=N\OCOCCOC)[C@H](C)[C@@H](O)[C@]1(C)O [Roxithromycin, roxithromycin]
KCNJ3/KCNJ5^WT
  inhibition of potassium currents in KCNJ3/KCNJ5^WT channels: no inhibition
[1]
  maximum serum concentrations: 16.4 mg/L
[1]; conversion of 16.4 mg/L
  maximum serum concentrations: ~17 µM
